{"source": "paper PMC12196007", "about": "(Molecules, 2025)", "key": {"[1]": {"experiment": "In vitro drug release (dialysis bag, PBS)", "assay_type": "physicochemical", "method": "The release media were designed to simulate physiological conditions of the human gastrointestinal tract: pH 2.0 (simulated gastric fluid), pH 6.8 (simulated intestinal fluid), and pH 7.4 (to mimic the alkaline colonic terminus). […] Aliquots (0.5 mL) were collected at predetermined intervals (0.5, 1, 2, 4, 6, 8, 12, and 24 h), with the release medium replenished immediately after each sampling to maintain sink conditions. The experiment was repeated three times. The drug release was quantified using a validated HPLC method. Cumulative release percentages were plotted against time, and release kinetics were analyzed using four models: zero-order kinetics, first-order kinetics, Higuchi equation, and Weibull distribution function. Key parameters, including T50 (time required for 50% drug dissolution) and Td (time required for 63.2% drug dissolution), were calculated to evaluate pH-dependent release profiles."}, "[2]": {"system": "Caco-2 cells", "experiment": "Cellular uptake in Caco-2 cell monolayer", "assay_type": "in vitro ADME, human", "conditions": "Caco-2, 200 μg·mL−1 CUR, 20 min", "method": "Caco-2 cells were seeded into the donor chamber of Transwell inserts at a density of 1 × 10^5 cell·mL^−1 and cultured in complete medium. Transepithelial electrical resistance (TEER) was measured on the 0th, 3rd, 5th, 7th, 10th, and 15th days to monitor monolayer integrity. A TEER value exceeding 700 Ω·cm² was established as the threshold for successful formation of the human intestinal epithelial barrier model. Following model validation, the cell surface was equilibrated with PBS for 30 min and rinsed to remove debris. […] Cellular uptake was terminated by rapid washing with ice-cold PBS to remove surface-bound drug and nonviable cells. […] Cellular uptake was calculated according to Equation (4).\nThe established Caco-2 cell monolayer model imitating human intestinal epithelium was equilibrated in pH 7.4 PBS at 37 °C within a CO2 incubator for 30 min. After removal of PBS, the cell surface was rinsed three times. […] The uptake process was terminated by ice-cold PBS, and residual solutions were removed by washing. Cells were then scraped into centrifuge tubes, sonicated, and quantified for uptake measurements."}, "[3]": {"experiment": "2 h incubation of CUR solutions with intestinal segments (residual CUR)", "assay_type": "in vitro ADME, rats"}, "[4]": {"experiment": "In situ single-pass intestinal perfusion", "assay_type": "in vivo, Sprague–Dawley (SD) rats", "conditions": "for Papp: both sexes, Sprague-Dawley, rat, other: in situ single-pass intestinal perfusion, read-out: Peff (effective permeability coefficient)", "method": "The rats were anesthetized and secured in a supine position on a surgical platform maintained at 37 °C. […] A 10 cm intestinal segment was isolated, and incisions were made at both ends. Silicone tubes were inserted into the incisions and ligated. […] Subsequently, the test sample was perfused through the intestinal loop. […] The collected samples were centrifuged, and the supernatant was mixed with methanol to precipitate proteins. After a second centrifugation, the resulting supernatant was analyzed by HPLC."}, "[5]": {"experiment": "In vivo pharmacokinetic study, oral gavage", "design": "species or system SD rats", "method": "The analysis was performed on a Q Exactive™ hybrid quadrupole-Orbitrap™ mass spectrometer (Thermo Fisher Scientific, USA) with the following parameters: Chromatographic separation was achieved by Agilent ZORBAX SB-C18 column (150 mm × 4.6 mm, 5 μm) with a mobile phase of acetonitrile and 0.1% formic acid aqueous solution (48:52, v/v) at a flow rate of 1 mL·min^−1 while maintaining the column temperature at 30 °C. The mass spectrometer operated in positive ion mode with an electrospray ionization (ESI) source, employing multiple reaction monitoring (MRM) for detection. Key ionization parameters included a capillary voltage of 3.0 kV and nitrogen as the collision gas.\nTwelve SD rats (220 ± 20 g, equal numbers of males and females) were fasted for 24 h with free access to water and randomly allocated into two groups (n = 6 per group). […] Blood samples (~0.5 mL) were collected from the jugular vein into anticoagulant tubes at 0, 0.25, 0.5, 1, 2, 4, 6, 8, 12, and 24 h after administration. After centrifugation to collect the supernatant, samples were spiked with 20 μL of a 100 μg·mL^−1 internal standard solution, extracted twice with ethyl acetate for protein precipitation, and the combined organic phases were evaporated using a refrigerated vacuum concentrator."}, "[6]": {"experiment": "Stability of CUR sample solutions at room temperature (HPLC method validation)", "assay_type": "physicochemical", "conditions": "0-20 h", "method": "2.4 Precision and Stability […]\nwas diluted to three concentration levels: low (1 μg·mL-1), medium (10 μg·mL-1), and […]\ncontent was measured by HPLC in triplicate to assess intraday precision. The same samples were analyzed once daily for five consecutive days to assess interday […]\ntemperature. Samples were collected at 0, 4, 8, 12, and 20 hours and analyzed by […]\nfor low, medium, and high concentrations, respectively. The interday RSD values were 1.97%, 2.00%, and 1.94%, indicating good method precision. Stability results […]\ntemperature for up to 20 hours. […]"}, "[7]": {"conditions": "cited from earlier work"}, "[8]": {"conditions": "both sexes, Sprague-Dawley, rat, plasma, po, 50 mg/kg"}}, "note": "“And” between values parts separate entries of the source, which are not always exact repeats. Equal entries are not always repeated. Where two headings read alike, the source gives them in different places."}
{"smiles": "COc1cc(/C=C/C(=O)CC(=O)/C=C/c2ccc(O)c(OC)c2)ccc1O", "note": "[CUR, Curcumin]", "values": [{"measurement": "Cumulative release of CUR at 4 h", "setting": "[1]; 4 h", "value": "~80", "unit": "%"}, {"measurement": "Cumulative release rate at 24 h", "setting": "[1]; pH 2.0, 24 h", "value": 88.89, "unit": "%"}, {"measurement": "Cumulative release rate at 24 h", "setting": "[1]; pH 6.8, 24 h", "value": 90.17, "unit": "%"}, {"measurement": "Cumulative release rate at 24 h", "setting": "[1]; pH 7.4, 24 h", "value": 86.64, "unit": "%"}, {"measurement": "Drug Intake, mean (x¯)", "setting": "[2]; n = 3", "value": "43.82 ± 1.74", "unit": "µg/mg"}, {"measurement": "Drug Intake (single replicates)", "setting": "[2]; per mg protein", "value": "42.03 µg/mg and 44.28 µg/mg and 45.46 µg/mg"}, {"measurement": "Residual CUR percentage", "setting": "[3]; colonic segment", "value": "92.90 ± 0.96", "unit": "%"}, {"measurement": "Residual CUR percentage", "setting": "[3]; duodenal segment", "value": "99.63 ± 0.34", "unit": "%"}, {"measurement": "Residual CUR percentage", "setting": "[3]; ileal segment", "value": "94.41 ± 1.57", "unit": "%"}, {"measurement": "Residual CUR percentage", "setting": "[3]; jejunal segment", "value": "95.63 ± 0.47", "unit": "%"}, {"measurement": "Papp", "setting": "[4]; colon", "value": "8.3 ± 0.1", "unit": "×10⁻⁶ cm/s"}, {"measurement": "Papp", "setting": "[4]; duodenum", "value": "27.2 ± 0.5", "unit": "×10⁻⁶ cm/s"}, {"measurement": "Papp", "setting": "[4]; ileum", "value": "23.3 ± 1.1", "unit": "×10⁻⁶ cm/s"}, {"measurement": "Papp", "setting": "[4]; jejunum", "value": "26.1 ± 3.7", "unit": "×10⁻⁶ cm/s"}, {"measurement": "Ka (absorption rate constant)", "setting": "[4]; colon", "value": "0.29 ± 0.0095", "unit": "min⁻¹"}, {"measurement": "Remaining dosage", "setting": "[4]; colon, 15 min", "value": "97.47 ± 0.83", "unit": "%"}, {"measurement": "Remaining dosage", "setting": "[4]; colon, 30 min", "value": "92.6 ± 1.04", "unit": "%"}, {"measurement": "Remaining dosage", "setting": "[4]; colon, 45 min", "value": "87.97 ± 1.07", "unit": "%"}, {"measurement": "Remaining dosage", "setting": "[4]; colon, 60 min", "value": "79.51 ± 3.48", "unit": "%"}, {"measurement": "Remaining dosage", "setting": "[4]; colon, 75 min", "value": "78.03 ± 0.99", "unit": "%"}, {"measurement": "Remaining dosage", "setting": "[4]; colon, 90 min", "value": "73.23 ± 0.45", "unit": "%"}, {"measurement": "Remaining dosage", "setting": "[4]; colon, 105 min", "value": "70.98 ± 0.98", "unit": "%"}, {"measurement": "Remaining dosage", "setting": "[4]; colon, 120 min", "value": "66.55 ± 1.07", "unit": "%"}, {"measurement": "Ka (absorption rate constant)", "setting": "[4]; duodenum", "value": "0.52 ± 0.0048", "unit": "min⁻¹"}, {"measurement": "Remaining dosage", "setting": "[4]; duodenum, 15 min", "value": "93.61 ± 0.59", "unit": "%"}, {"measurement": "Remaining dosage", "setting": "[4]; duodenum, 30 min", "value": "89.22 ± 1.18", "unit": "%"}, {"measurement": "Remaining dosage", "setting": "[4]; duodenum, 45 min", "value": "79.11 ± 0.58", "unit": "%"}, {"measurement": "Remaining dosage", "setting": "[4]; duodenum, 60 min", "value": "69.18 ± 1.92", "unit": "%"}, {"measurement": "Remaining dosage", "setting": "[4]; duodenum, 75 min", "value": "61.93 ± 1.54", "unit": "%"}, {"measurement": "Remaining dosage", "setting": "[4]; duodenum, 90 min", "value": "54.95 ± 0.33", "unit": "%"}, {"measurement": "Remaining dosage", "setting": "[4]; duodenum, 105 min", "value": "45.36 ± 1.72", "unit": "%"}, {"measurement": "Remaining dosage", "setting": "[4]; duodenum, 120 min", "value": "42.13 ± 0.88", "unit": "%"}, {"measurement": "Ka (absorption rate constant)", "setting": "[4]; ileum", "value": "0.47 ± 0.0208", "unit": "min⁻¹"}, {"measurement": "Remaining dosage", "setting": "[4]; ileum, 15 min", "value": "93.68 ± 0.37", "unit": "%"}, {"measurement": "Remaining dosage", "setting": "[4]; ileum, 30 min", "value": "89.84 ± 0.89", "unit": "%"}, {"measurement": "Remaining dosage", "setting": "[4]; ileum, 45 min", "value": "82.04 ± 1.06", "unit": "%"}, {"measurement": "Remaining dosage", "setting": "[4]; ileum, 60 min", "value": "72.17 ± 1.08", "unit": "%"}, {"measurement": "Remaining dosage", "setting": "[4]; ileum, 75 min", "value": "64.11 ± 1.25", "unit": "%"}, {"measurement": "Remaining dosage", "setting": "[4]; ileum, 105 min", "value": "51.48 ± 1.18", "unit": "%"}, {"measurement": "Remaining dosage", "setting": "[4]; ileum, 120 min", "value": "45.11 ± 3.27", "unit": "%"}, {"measurement": "Ka (absorption rate constant)", "setting": "[4]; jejunum", "value": "0.47 ± 0.0088", "unit": "min⁻¹"}, {"measurement": "Remaining dosage", "setting": "[4]; jejunum, 15 min", "value": "94.43 ± 2.05", "unit": "%"}, {"measurement": "Remaining dosage", "setting": "[4]; jejunum, 30 min", "value": "90.52 ± 0.80", "unit": "%"}, {"measurement": "Remaining dosage", "setting": "[4]; jejunum, 45 min", "value": "87.97 ± 0.43", "unit": "%"}, {"measurement": "Remaining dosage", "setting": "[4]; jejunum, 60 min", "value": "77.07 ± 0.97", "unit": "%"}, {"measurement": "Remaining dosage", "setting": "[4]; jejunum, 75 min", "value": "70.44 ± 0.82", "unit": "%"}, {"measurement": "Remaining dosage", "setting": "[4]; jejunum, 90 min", "value": "62.99 ± 0.92", "unit": "%"}, {"measurement": "Remaining dosage", "setting": "[4]; jejunum, 105 min", "value": "54.99 ± 0.74", "unit": "%"}, {"measurement": "Remaining dosage", "setting": "[4]; jejunum, 120 min", "value": "46.26 ± 0.94", "unit": "%"}, {"measurement": "AUC(0-inf)", "setting": "[5]; [8]", "value": "144 ± 25.4", "unit": "ng·h/mL"}, {"measurement": "AUC(0-t)", "setting": "[5]; [8]", "value": "106 ± 21.8", "unit": "ng·h/mL"}, {"measurement": "Cmax", "setting": "[5]; [8]", "value": "64.9 ± 12", "unit": "ng/mL"}, {"measurement": "Tmax", "setting": "[5]; [8]", "value": 1, "unit": "h"}, {"measurement": "half-life", "setting": "[5]; [8]", "value": "3.97 ± 1.48", "unit": "h"}, {"measurement": "MRT last", "setting": "[5]; both sexes, Sprague-Dawley, rat, plasma, po, 50 mg/kg, read-out: MRT0-t", "value": "2.35 ± 0.67", "unit": "h"}, {"measurement": "MRT inf", "setting": "[5]; both sexes, Sprague-Dawley, rat, plasma, po, 50 mg/kg, read-out: MRT0-∞", "value": "5.13 ± 1.36", "unit": "h"}, {"measurement": "Time within which almost completely eliminated", "setting": "[5]; rats, oral, 50 mg·kg−1", "value": "≤ 4", "unit": "h"}, {"measurement": "Stability: RSD of CUR concentration", "setting": "[6]; CUR solution for intestinal mucus penetration study, 10 μg·mL-1, room temperature", "value": 0.28, "unit": "%"}, {"measurement": "Stability: RSD of CUR concentration", "setting": "[6]; CUR solution for release studies, 50 μg·mL-1, room temperature", "value": 0.63, "unit": "%"}, {"measurement": "Plasma concentrations as share of the administered dose (oral bioavailability)", "setting": "[7]", "value": "~1", "unit": "%"}]}
